Measurements reported in publication PMC8987933 (Frontiers in Nutrition, 2022).
Where two headings read alike, the source gives them in different places.

Assays:
[1] = with green tea; 10 healthy volunteers; cited from earlier work
[2] = cited from earlier work
[3] = test system: human P-gp; settings: cited from earlier work
[4] = test system: human BCRP; settings: cited from earlier work
[5] = test system: OATP2B1; settings: cited from earlier work
[6] = test system: OATP1A2; settings: cited from earlier work
[7] = test system: OATP1B3; settings: in vitro studies; cited from earlier work
[8] = cited from earlier work; remark: listed apart in the source
[9] = clinical; settings: human, in vivo
Excerpt: Healthy Chinese male subjects aged 18–45 years were recruited from a pool of over 200 healthy volunteers who had been genotyped for the ABCG2 421C>A (rs2231142) polymorphism. A total of 20 healthy Chinese male subjects were selected for the rosuvastatin pharmacokinetic study based on the ABCG2 421C>A genotypes. The study was reviewed and approved by the Joint Chinese University of Hong Kong-New Territories East Cluster Clinical Research Ethics Committee with reference number CRE-2010.524-T. The study was performed in accordance with the ethical standards laid down in the Declaration of Helsinki and subsequent revisions. Written informed consent was obtained from each participant.
All subjects were required to abstain from any prescription or non-prescription medications 2 weeks before and throughout the study. They were not allowed to take alcohol, tea, grapefruit juice, caffeine, soybean milk or dietary supplements and herbal products 2 weeks before and throughout the entire study period. They were also not allowed to smoke 2 weeks before and throughout the study. Subjects were requested to fast for 10 h before and 4 h after drug administration during the blood sampling sessions. Meals were standardized and consumed at 4 h and 10 h post-dosing. Drinking water was not allowed from 1 h pre-dose to 1 h post-dose except that needed for drug dosing at the time of blood sampling sessions. Subjects were asked to report any adverse effects at each visit to the study center.
This was an open-label, three-phase randomized crossover study. […] The herbal extracts were present as a powder which was taken in 150 ml water at room temperature. Blood samples were taken at intervals from 0 to 24 h on the rosuvastatin dosing days. During the study, subjects were frequently reminded of the requirements for diet restrictions, and they were requested to record their daily food intake, including the main meals, snacks and beverages of the day by using a simple food diary, which can help to monitor the food compliance during the study.
Plasma concentrations of rosuvastatin were determined by Liquid Chromatography-Tandem Mass Spectrometry (LC-MS/MS) using the corresponding isotopically labeled compound as an internal standard as described ([28]). The plasma samples were prepared using liquid–liquid extraction with diethyl ether. Chromatographic separation was accomplished on an Xterra MS C18 column (50 × 2.1 mm, 5 μm; Waters, Milford, MA). The mobile phase consisted of a gradient mixture of 0.015 mmol/L ammonium acetate in water (mobile phase A) and methanol (mobile phase B) at a flow rate of 0.4 mL/min. The gradient started at 20% mobile phase B for 0.5 min with a subsequent fast gradient to 100% mobile phase B in 1 min and maintained for another 2.5 min. The gradient was then returned to the initial mobile phase concentration in a chromatographic run of 8 min. MS/MS detection with quantification transition of m/z 480.1–418.1 and qualification transition of m/z 480.1–340.1 was used for rosuvastatin. The lower limit of quantification of rosuvastatin was 0.05 μg/L by using 200 μL plasma.
The pharmacokinetic parameters of rosuvastatin were calculated using non-compartmental methods with the aid of the computer program WinNolin (version 2.1, Pharsight Corporation). The maximum plasma concentration (Cmax) and time to Cmax (tmax) were obtained directly from the observed concentration-time data. The terminal elimination rate constant (λZ) was estimated by linear regression of the terminal portion of the concentration-time curve, and the elimination half-life (t1/2) was calculated as 0.693/λZ. Systemic exposure to rosuvastatin was evaluated by calculating the AUC using the linear trapezoidal rule and AUC0−∞ was calculated as AUC0−∞ = AUC0−t + Ct/Kel where Ct is the last quantifiable concentration. The oral clearance (CL/F) was calculated as Dose/AUC0−∞.

[10] = cited from earlier work; remark: listed apart in the source
[11] = test system: OATP1B1; settings: cited from earlier work
[12] = cited from earlier work; remark: listed apart in the source
[13] = pre-treatment with green tea extract (400 mg/kg) vs control
[14] = rosuvastatin administered with 300 mg pure crystalline EGCG (single dose)

## CC(C)(C)NCC(O)COc1cccc2c1CC(O)C(O)C2 (centres unmarked) [nadolol]
[1]
  decrease of AUC of nadolol: 85.0%
  decrease of Cmax of nadolol: 85.3%
[2]; EGCG alone (150 mg/kg)
  reduction in AUC of nadolol: 73%
  reduction in Cmax of nadolol: 81%
[2]; [13]
  reduction in AUC of nadolol: 74%
  reduction in Cmax of nadolol: 85%

## (–)-epigallocatechin-3-gallate [EGCG]
[3]
  effect on P-gp-mediated dasatinib efflux: no significant effect
[4]
  effect on BCRP-mediated dasatinib efflux: no significant effect
[5]; concentration-dependent
  effect on OATP2B1-mediated uptake of estrone-3-sulfate: inhibited
[6]; concentration-dependent
  effect on OATP1A2-mediated uptake of estrone-3-sulfate: inhibited
[7]
  effect on OATP1B3: activate

## CC(C)c1nc(N(C)S(C)(=O)=O)nc(-c2ccc(F)cc2)c1/C=C/[C@@H](O)C[C@@H](O)CC(=O)O [Rosuvastatin, rosuvastatin]
[8]; after giving EGCG daily for 10 days
  systemic exposure of rosuvastatin vs baseline before EGCG: not significantly different from the baseline value
[8]; [14]
  reduction of AUC up to 8 h: 19%
  reduction of Cmax: 15%
[9]; po, 10 mg
  Clearance (oral clearance CL/F): 85.1 (28.4) L/h
[9]; male
  AUC0−24h GMR (90%CI): 0.78
  Cmax GMR (90%CI): 0.71
[9]; male, 10 mg
  AUC(0-inf): 118 ng·h/mL
  AUC(0-t): 109 ng·h/mL
  Cmax: 13.1 (32.2) μg/L
  half-life: 6.21 h
  tmax: 3.0 (1.5, 6.0) h
[10]; SLCO1B1*1b/*1b subjects
  change of systemic exposure of rosuvastatin after baicalin compared to placebo: −41.9%
[10]; SLCO1B1*1b/*15 subjects
  change of systemic exposure of rosuvastatin after baicalin compared to placebo: −23.9%

## Oc1cc(O)c2c(c1)O[C@H](c1ccc(O)c(O)c1)[C@H](O)C2 [EC, epicatechin]
[3]
  effect on P-gp-mediated dasatinib efflux: no significant effect
[4]
  effect on BCRP-mediated dasatinib efflux: no significant effect

## O=C(O[C@@H]1Cc2c(O)cc(O)cc2O[C@@H]1c1ccc(O)c(O)c1)c1cc(O)c(O)c(O)c1 [ECG, epicatechin gallate]
[3]
  effect on P-gp-mediated dasatinib efflux: no significant effect
[4]
  effect on BCRP-mediated dasatinib efflux: no significant effect
[11]
  inhibition of OATP1B1: can inhibit
[5]
  inhibition of OATP2B1: can inhibit
[6]
  inhibition of OATP1A2: can inhibit

## CCN(CC)CCNC(=O)c1c(C)[nH]c(/C=C2\C(=O)Nc3ccc(F)cc32)c1C [sunitinib]
[12]; EGCG and sunitinib taken together
  effect of EGCG on bioavailability of sunitinib: reduced the bioavailability
[12]; EGCG taken 8 or 4 h before sunitinib administration
  effect of EGCG on the pharmacokinetics of sunitinib: no effect

## Oc1cc(O)c2c(c1)O[C@H](c1cc(O)c(O)c(O)c1)[C@H](O)C2 [EGC, epigallocatechin]
[3]
  effect on P-gp-mediated dasatinib efflux: no significant effect
[4]
  effect on BCRP-mediated dasatinib efflux: no significant effect
